Source: ChEMBL document CHEMBL1150466, “Studies on the active conformation of NK1 antagonist CGP 49823. Part 1. Synthesis of conformationally restricted analogs” (Bioorg Med Chem Lett, 1997)

Each compound was assayed against Substance-P receptor (Homo sapiens, UniProt P25103) (assay: Tested for the inhibitory potency against Neurokinin 1 NK1 receptor).
Sequence of Substance-P receptor (P25103 whole entry): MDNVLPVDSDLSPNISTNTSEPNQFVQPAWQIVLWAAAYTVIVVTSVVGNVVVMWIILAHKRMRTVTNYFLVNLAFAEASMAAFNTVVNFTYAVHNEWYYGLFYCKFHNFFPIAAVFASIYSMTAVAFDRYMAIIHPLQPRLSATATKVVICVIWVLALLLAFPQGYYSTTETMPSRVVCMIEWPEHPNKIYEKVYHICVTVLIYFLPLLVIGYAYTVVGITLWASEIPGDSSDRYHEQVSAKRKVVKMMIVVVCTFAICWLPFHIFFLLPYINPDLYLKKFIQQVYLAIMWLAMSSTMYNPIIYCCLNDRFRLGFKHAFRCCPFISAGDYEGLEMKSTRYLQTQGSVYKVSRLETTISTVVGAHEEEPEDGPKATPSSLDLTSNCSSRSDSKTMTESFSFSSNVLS

Row | Structure (SMILES) | IC50 [nM]
1 | Cc1cc(C)cc(C(=O)N2C3C=C(c4ccccc4)C2CC(NCc2ccnc4ccccc24)C3)c1 (racemic) | 1000
2 | Cc1cc(C)cc(C(=O)N2C3CC(NCc4ccnc5ccccc45)CC2C(c2ccccc2)C3)c1 (racemic; form 1) | 44
3 | Cc1cc(C)cc(C(=O)N2C3CC(NCc4ccnc5ccccc45)CC2C(c2ccccc2)C3)c1 (racemic; form 2) | 640
